Test results from patent US6555091B1, “Polypeptide capable of reacting with antibodies of patients suffering from multiple sclerosis and uses” (Bio Merieux, priority 1997, dated 2003).

What was measured:
[1] = system: IgG of CSF from patients suffering from MS; assay: ELISA of polypeptides, IgG response of CSFs diluted 1/10 (Table 5, FIGS. 7A and 7B); assay type: binding, human; conditions: total line, 15 MS patients, CSF 1/10
Text: FIGS. 7A and 7B represents the IgG response of the polypeptides whose peptide sequence consists of, respectively, SEQ ID NO: 13, SEQ ID NO: 12, SEQ ID NO: 14, SEQ ID NO: 16, SEQ ID NO: 19 and SEQ ID NO: 15, with respect to CSFs diluted 1/10; the results assembled in the appended Table 5 are expressed by the difference in the optical density values obtained for the polypeptide tested and the values obtained for the HIV polypeptide used as control; ND corresponds to patients suffering from a neurological disease other than MS, and MS* corresponds to patients suffering from MS.
Table 5, illustrated in FIGS. 7A and 7B, collates the results on the specific recognition of CSF from patients suffering from MS for 6 polypeptides of the invention, SEQ ID NO: 13, SEQ ID NO: 12, SEQ ID NO: 14, SEQ ID NO: 16, SEQ ID NO: 19 and SEQ ID NO: 15.
For each polypeptide tested, identified in Table 5 by its peptide sequence, the CSFs from patients 1-22 suffering from Ms are determined as positive (+) if the OD value at 492 nm for a 1/10 dilution of the CSF is greater than the mean values obtained for the CSFs from the ND patients+3 times the standard deviation.

[2] = system: IgM of sera from MS patients and healthy individuals; assay: ELISA of biotinylated synthetic peptide, IgM response of individual human sera; assay type: binding; design: key to LINE (mark: serum recognizes the peptide): X: 7 sera out of 11 recognize this peptide; conditions: 1/100; for LINE (mark: serum recognizes the peptide) / OD 1 / OD 2 / OD 3 / MEAN: IgM
Protocol: Depending on the information obtained from the preceding examples, the hexapeptides SEQ ID NO: 3 and SEQ ID NO: 4 were synthesized and biotinylated according to the method described in Patent Application No. EP 93420183 with the following modifications: the peptide still bound to the resin is selectively deprotected at the N-terminal position. After overnight incubation with the biotin-NHS at 50% in DMF, the peptide is then cleaved from the resin and treated as described in the patent cited above.
The wells of a Maxisorb (trade name, Nunc) microtiter plate are saturated with 100 μl of a 50 mM NaHCO3 solution, pH 9.6, containing 10 μg/ml of streptavidin for 2 hours at 37° C. The plate is washed with TBS/0.05% Tween 20 buffer. The wells are then saturated with 250 μl of wash buffer supplemented with 10% goat serum for 1 hour at 37° C. and then washed as described above.
The IgM response is determined by addition of a 1/4000 solution of mouse monoclonal antibody anti-alkaline phosphatase-labeled human M immunoglobulin conjugate (bioMérieux Ac 5A10D5). After incubation at 37° C. for one hour the plate is again washed and the p-nitrophenyl phosphate substrate at 1 mg/ml in an […] of diethanolamine, pH 9.8, containing 1 mM MgCl2, is added. The reaction is stopped after 30 minutes by the addition of 50 μl of 3N sodium hydroxide solution. The optical density is read at 405 nm.
This unit was therefore also synthesized and biotinylated.

## DTPYPWGWLLDEGYD (MSRV) [SEQ ID NO: 15]
[1]
  number of positive (+) CSFs: 0+

## LAVRHD [SEQ ID NO: 8]
[2]; serum 33/6 (MS+, remission)
  LINE (mark: serum recognizes the peptide): X
  OD 1: 516 optical density (×1000)
  OD 2: 529 optical density (×1000)
  OD 3: 481 optical density (×1000)
[2]; serum 33/6 (MS+, remission), (mean less Control 1, 173)
  MEAN: 336 optical density (×1000)
[2]; serum 33/6 (MS+, remission), MEAN
  MEAN: 509 optical density (×1000)
[2]; serum 33/8 (MS+, remission)
  LINE (mark: serum recognizes the peptide): X
  OD 1: 609 optical density (×1000)
  OD 2: 512 optical density (×1000)
  OD 3: 568 optical density (×1000)
[2]; serum 33/8 (MS+, remission), (mean less Control 1, 173)
  MEAN: 390 optical density (×1000)
[2]; serum 33/8 (MS+, remission), MEAN
  MEAN: 563 optical density (×1000)
[2]; serum 33/18 (MS+, remission)
  LINE (mark: serum recognizes the peptide): X
  OD 1: 277 optical density (×1000)
  OD 2: 262 optical density (×1000)
  OD 3: 255 optical density (×1000)
[2]; serum 33/18 (MS+, remission), (mean less Control 1, 173)
  MEAN: 92 optical density (×1000)
[2]; serum 33/18 (MS+, remission), MEAN
  MEAN: 265 optical density (×1000)
[2]; serum No. 12 (MS−, healthy)
  OD 1: 222 optical density (×1000)
  OD 2: 175 optical density (×1000)
  OD 3: 163 optical density (×1000)
[2]; serum No. 12 (MS−, healthy), (mean less Control 1, 173)
  MEAN: 14 optical density (×1000)
[2]; serum No. 12 (MS−, healthy), MEAN
  MEAN: 187 optical density (×1000)
[2]; serum No. 13 (MS−, healthy)
  OD 1: 145 optical density (×1000)
  OD 2: 154 optical density (×1000)
  OD 3: 196 optical density (×1000)
[2]; serum No. 13 (MS−, healthy), (mean less Control 1, 173)
  MEAN: −6 optical density (×1000)
[2]; serum No. 13 (MS−, healthy), MEAN
  MEAN: 165 optical density (×1000)
[2]; serum No. 14 (MS−, healthy)
  OD 1: 320 optical density (×1000)
  OD 2: 165 optical density (×1000)
  OD 3: 143 optical density (×1000)
[2]; serum No. 14 (MS−, healthy), (mean less Control 1, 173)
  MEAN: 36 optical density (×1000)
[2]; serum No. 14 (MS−, healthy), MEAN
  MEAN: 209 optical density (×1000)
[2]; serum No. 15 (MS−, healthy)
  OD 1: 254 optical density (×1000)
  OD 2: 205 optical density (×1000)
  OD 3: 173 optical density (×1000)
[2]; serum No. 15 (MS−, healthy), (mean less Control 1, 173)
  MEAN: 38 optical density (×1000)
[2]; serum No. 15 (MS−, healthy), MEAN
  MEAN: 211 optical density (×1000)
[2]; serum QS 2 (MS+, remission)
  LINE (mark: serum recognizes the peptide): X
  OD 1: 281 optical density (×1000)
  OD 2: 280 optical density (×1000)
  OD 3: 231 optical density (×1000)
[2]; serum QS 2 (MS+, remission), (mean less Control 1, 173)
  MEAN: 91 optical density (×1000)
[2]; serum QS 2 (MS+, remission), MEAN
  MEAN: 264 optical density (×1000)
[2]; serum QS 3 (MS+, remission)
  OD 1: 191 optical density (×1000)
  OD 2: 169 optical density (×1000)
  OD 3: 164 optical density (×1000)
[2]; serum QS 3 (MS+, remission), (mean less Control 1, 173)
  MEAN: 2 optical density (×1000)
[2]; serum QS 3 (MS+, remission), MEAN
  MEAN: 175 optical density (×1000)
[2]; serum QS 4 (MS+, remission)
  LINE (mark: serum recognizes the peptide): X
  OD 1: 374 optical density (×1000)
  OD 2: 361 optical density (×1000)
  OD 3: 346 optical density (×1000)
[2]; serum QS 4 (MS+, remission), (mean less Control 1, 173)
  MEAN: 187 optical density (×1000)
[2]; serum QS 4 (MS+, remission), MEAN
  MEAN: 360 optical density (×1000)
[2]; serum QS 6 (MS+, remission)
  OD 1: 156 optical density (×1000)
  OD 2: 147 optical density (×1000)
  OD 3: 151 optical density (×1000)
[2]; serum QS 6 (MS+, remission), (mean less Control 1, 173)
  MEAN: −22 optical density (×1000)
[2]; serum QS 6 (MS+, remission), MEAN
  MEAN: 151 optical density (×1000)
[2]; serum QS 7 (MS+, remission)
  LINE (mark: serum recognizes the peptide): X
  OD 1: 311 optical density (×1000)
  OD 2: 290 optical density (×1000)
  OD 3: 164 optical density (×1000)
[2]; serum QS 7 (MS+, remission), (mean less Control 1, 173)
  MEAN: 82 optical density (×1000)
[2]; serum QS 7 (MS+, remission), MEAN
  MEAN: 265 optical density (×1000)
[2]; serum QS 8 (MS+, remission)
  LINE (mark: serum recognizes the peptide): X
  OD 1: 305 optical density (×1000)
  OD 2: 221 optical density (×1000)
  OD 3: 265 optical density (×1000)
[2]; serum QS 8 (MS+, remission), (mean less Control 1, 173)
  MEAN: 91 optical density (×1000)
[2]; serum QS 8 (MS+, remission), MEAN
  MEAN: 264 optical density (×1000)
[2]; serum QS 11 (MS+, remission)
  OD 1: 164 optical density (×1000)
  OD 2: 160 optical density (×1000)
  OD 3: 139 optical density (×1000)
[2]; serum QS 11 (MS+, remission), (mean less Control 1, 173)
  MEAN: −19 optical density (×1000)
[2]; serum QS 11 (MS+, remission), MEAN
  MEAN: 154 optical density (×1000)
[2]; serum QS 12 (MS+, remission)
  OD 1: 123 optical density (×1000)
  OD 2: 57 optical density (×1000)
  OD 3: 148 optical density (×1000)
[2]; serum QS 12 (MS+, remission), (mean less Control 1, 173)
  MEAN: −64 optical density (×1000)
[2]; serum QS 12 (MS+, remission), MEAN
  MEAN: 109 optical density (×1000)
[2]; same panel of 11 MS remission sera
  MS sera recognizing the peptide, IgM response: 7 sera out of 11
